Test results: US9469650B2, “Melampomagnolide B derivatives” (BOARD OF TRUSTEES OF THE UNIVERSITY OF ARKANSAS, priority 2013, dated 2016)

Assays:
[1] = test system: ACHN; test: panel of 60 human tumor cell lines, growth inhibition (Renal Cancer)
[2] = test system: RXF 393; test: as above; details: RXF 393
[3] = test system: NCI-H460; test: panel of 60 human tumor cell lines, growth inhibition (Non-Small Cell Lung Cancer); details: NCI-H460
[4] = test system: NCI-H322M; test: as above
[5] = test system: SK-MEL-5; test: panel of 60 human tumor cell lines, growth inhibition (Melanoma); details: 8K-MEL-5
[6] = test system: MCF7; test: panel of 60 human tumor cell lines, growth inhibition (Breast Cancer); details: MCF7
[7] = test system: SK-OV-3; test: panel of 60 human tumor cell lines, growth inhibition (Ovarian Cancer); details: SK-OV-3
[8] = test system: HCT-15; test: panel of 60 human tumor cell lines, growth inhibition (Colon Cancer); details: HCT-15
[9] = test system: T-47D; test: panel of 60 human tumor cell lines, growth inhibition (Breast Cancer); details: T-47D
[10] = test system: SF-539; test: panel of 60 human tumor cell lines, growth inhibition (CNS Cancer); details: SF-539
[11] = test system: HOP-92; test: panel of 60 human tumor cell lines, growth inhibition (Non-Small Cell Lung Cancer); details: HOP-92
[12] = test system: HCC-2998; test: panel of 60 human tumor cell lines, growth inhibition (Colon Cancer); details: HCC-2998
[13] = test system: SNB-19; test: panel of 60 human tumor cell lines, growth inhibition (CNS Cancer); details: SNB-19
[14] = test system: IGROV1; test: panel of 60 human tumor cell lines, growth inhibition (Ovarian Cancer); details: IGROVI
[15] = test system: MDA-MB-435; test: panel of 60 human tumor cell lines, growth inhibition (Melanoma); details: MDA-MB-435
[16] = test system: BT-549; test: panel of 60 human tumor cell lines, growth inhibition (Breast Cancer); details: BT-549
[17] = test system: MOLT-4; test: panel of 60 human tumor cell lines, growth inhibition (Leukemia); details: MOLT-4
[18] = test system: NCI-H23; test: panel of 60 human tumor cell lines, growth inhibition (Non-Small Cell Lung Cancer); details: NCI-H23
[19] = test system: UO-31; test: panel of 60 human tumor cell lines, growth inhibition (Renal Cancer); details: UO-31

## C=C1C(=O)O[C@H]2[C@H]1CC/C(COC(=O)CCC(=O)N1CCC(C)CC1)=C\CC[C@@]1(C)O[C@@H]21 [JVM 2-70]
[1]; Log10 Concentration −4.0
  Percent Growth: −79%
[1]; Log10 Concentration −5.0
  Percent Growth: 2%
[1]; Log10 Concentration −6.0
  Percent Growth: 85%
[1]; Log10 Concentration −7.0
  Percent Growth: 102%
[1]; Log10 Concentration −8.0
  Percent Growth: 98%
[1]; NCI five dose
  GI50: 2.64 µM
  TGI: 1.05E−5
[2]; Log10 Concentration −4.0
  Percent Growth: −88%
[2]; Log10 Concentration −5.0
  Percent Growth: −54%
[2]; Log10 Concentration −6.0
  Percent Growth: 91%
[2]; Log10 Concentration −7.0
  Percent Growth: 101%
[2]; Log10 Concentration −8.0
  Percent Growth: 105%
[2]; NCI five dose
  GI50: 1.91 µM
  TGI: 4.24E−6
[3]; Log10 Concentration −4.0
  Percent Growth: −57%
[3]; Log10 Concentration −5.0
  Percent Growth: 77%
[3]; Log10 Concentration −6.0
  Percent Growth: 99%
[3]; Log10 Concentration −7.0
  Percent Growth: 101%
[3]; Log10 Concentration −8.0
  Percent Growth: 100%
[3]; NCI five dose
  GI50: 16 µM
  TGI: 3.76E−5
[4]; Log10 Concentration −4.0
  Percent Growth: −83%
[4]; Log10 Concentration −5.0
  Percent Growth: 93%
[4]; Log10 Concentration −6.0
  Percent Growth: 102%
[4]; Log10 Concentration −7.0
  Percent Growth: 108%
[4]; Log10 Concentration −8.0
  Percent Growth: 102%
[4]; NCI five dose
  GI50: 17.6 µM
  TGI: 3.39E−5
[5]; Log10 Concentration −4.0
  Percent Growth: −93%
[5]; Log10 Concentration −5.0
  Percent Growth: 42%
[5]; Log10 Concentration −6.0
  Percent Growth: 96%
[5]; Log10 Concentration −7.0
  Percent Growth: 99%
[5]; Log10 Concentration −8.0
  Percent Growth: 98%
[5]; NCI five dose
  GI50: 7.17 µM
  TGI: 2.05E−5
[6]; Log10 Concentration −4.0
  Percent Growth: −63%
[6]; Log10 Concentration −5.0
  Percent Growth: 4%
[6]; Log10 Concentration −6.0
  Percent Growth: 74%
[6]; Log10 Concentration −7.0
  Percent Growth: 88%
[6]; Log10 Concentration −8.0
  Percent Growth: 83%
[6]; NCI five dose
  GI50: 2.22 µM
  TGI: 1.16E−5
[7]; Log10 Concentration −4.0
  Percent Growth: −10%
[7]; Log10 Concentration −5.0
  Percent Growth: 95%
[7]; Log10 Concentration −6.0
  Percent Growth: 99%
[7]; Log10 Concentration −7.0
  Percent Growth: 101%
[7]; Log10 Concentration −8.0
  Percent Growth: 92%
[7]; NCI five dose
  GI50: 26.8 µM
  TGI: 8.06E−5
[8]; Log10 Concentration −4.0
  Percent Growth: −70%
[8]; Log10 Concentration −5.0
  Percent Growth: −29%
[8]; Log10 Concentration −6.0
  Percent Growth: 74%
[8]; Log10 Concentration −7.0
  Percent Growth: 91%
[8]; Log10 Concentration −8.0
  Percent Growth: 90%
[8]; NCI five dose
  GI50: 1.7 µM
  TGI: 5.22E−6
[9]; Log10 Concentration −4.0
  Percent Growth: −48%
[9]; Log10 Concentration −5.0
  Percent Growth: 34%
[9]; Log10 Concentration −6.0
  Percent Growth: 94%
[9]; Log10 Concentration −7.0
  Percent Growth: 94%
[9]; Log10 Concentration −8.0
  Percent Growth: 86%
[9]; NCI five dose
  GI50: 5.45 µM
  TGI: 2.61E−5
[10]; Log10 Concentration −4.0
  Percent Growth: −90%
[10]; Log10 Concentration −5.0
  Percent Growth: −20%
[10]; Log10 Concentration −6.0
  Percent Growth: 92%
[10]; Log10 Concentration −7.0
  Percent Growth: 97%
[10]; Log10 Concentration −8.0
  Percent Growth: 93%
[10]; NCI five dose
  GI50: 2.35 µM
  TGI: 6.58E−6
[10]; read-out: LC50, NCI five dose
  CC50: 26.5 µM
[11]; Log10 Concentration −4.0
  Percent Growth: −91%
[11]; Log10 Concentration −5.0
  Percent Growth: 3%
[11]; Log10 Concentration −6.0
  Percent Growth: 71%
[11]; Log10 Concentration −7.0
  Percent Growth: 83%
[11]; Log10 Concentration −8.0
  Percent Growth: 87%
[11]; NCI five dose
  GI50: 2.05 µM
  TGI: 1.07E−5
[12]; Log10 Concentration −4.0
  Percent Growth: −80%
[12]; Log10 Concentration −5.0
  Percent Growth: 59%
[12]; Log10 Concentration −6.0
  Percent Growth: 110%
[12]; Log10 Concentration −7.0
  Percent Growth: 103%
[12]; Log10 Concentration −8.0
  Percent Growth: 106%
[12]; NCI five dose
  GI50: 11.5 µM
  TGI: 2.65E−5
[13]; Log10 Concentration −4.0
  Percent Growth: −80%
[13]; Log10 Concentration −5.0
  Percent Growth: 73%
[13]; Log10 Concentration −6.0
  Percent Growth: 95%
[13]; Log10 Concentration −7.0
  Percent Growth: 96%
[13]; Log10 Concentration −8.0
  Percent Growth: 95%
[13]; NCI five dose
  GI50: 14 µM
  TGI: 2.98E−5
[14]; Log10 Concentration −4.0
  Percent Growth: −52%
[14]; Log10 Concentration −5.0
  Percent Growth: 19%
[14]; Log10 Concentration −6.0
  Percent Growth: 104%
[14]; Log10 Concentration −7.0
  Percent Growth: 118%
[14]; Log10 Concentration −8.0
  Percent Growth: 109%
[14]; NCI five dose
  GI50: 4.32 µM
  TGI: 1.85E−5
[15]; Log10 Concentration −4.0
  Percent Growth: −72%
[15]; Log10 Concentration −5.0
  Percent Growth: 32%
[15]; Log10 Concentration −6.0
  Percent Growth: 90%
[15]; Log10 Concentration −7.0
  Percent Growth: 95%
[15]; Log10 Concentration −8.0
  Percent Growth: 89%
[15]; NCI five dose
  GI50: 4.84 µM
  TGI: 2.03E−5
[16]; Log10 Concentration −4.0
  Percent Growth: −96%
[16]; Log10 Concentration −5.0
  Percent Growth: −10%
[16]; Log10 Concentration −6.0
  Percent Growth: 71%
[16]; Log10 Concentration −7.0
  Percent Growth: 86%
[16]; Log10 Concentration −8.0
  Percent Growth: 81%
[16]; NCI five dose
  GI50: 1.82 µM
  TGI: 7.55E−6
[17]; Log10 Concentration −4.0
  Percent Growth: −49%
[17]; Log10 Concentration −5.0
  Percent Growth: −9%
[17]; Log10 Concentration −6.0
  Percent Growth: 115%
[17]; Log10 Concentration −7.0
  Percent Growth: 119%
[17]; Log10 Concentration −8.0
  Percent Growth: 110%
[17]; NCI five dose
  GI50: 3.33 µM
  TGI: 8.45E−6
[18]; Log10 Concentration −4.0
  Percent Growth: −70%
[18]; Log10 Concentration −5.0
  Percent Growth: 33%
[18]; Log10 Concentration −6.0
  Percent Growth: 94%
[18]; Log10 Concentration −7.0
  Percent Growth: 101%
[18]; Log10 Concentration −8.0
  Percent Growth: 95%
[18]; NCI five dose
  GI50: 5.24 µM
  TGI: 2.09E−5
[19]; Log10 Concentration −4.0
  Percent Growth: −84%
[19]; Log10 Concentration −5.0
  Percent Growth: 19%
[19]; Log10 Concentration −6.0
  Percent Growth: 88%
[19]; Log10 Concentration −7.0
  Percent Growth: 94%
[19]; Log10 Concentration −8.0
  Percent Growth: 96%
[19]; NCI five dose
  GI50: 3.56 µM
  TGI: 1.53E−5
